Results on five compounds are retold here after patent US5502035A, “N-terminus modified analogs of LHRH” (Tap Holdings Inc., priority 1994, dated 1996).

Non-standard residues stand in square brackets, D forms with d. Residues, ends and D or L forms follow the SMILES beside them. *: point of attachment. Shikimoyl = O=C(C1=C[C@@H](O)[C@@H](O)[C@H](O)C1)*; dPhe(4-Cl) = N[C@H](Cc1ccc(Cl)cc1)C(=O)O; d2Nal = N[C@H](Cc1ccc2ccccc2c1)C(=O)O; Lys(iPr) = CC(C)NCCCC[C@H](N)C(=O)O; NMeY = CN[C@@H](Cc1ccc(O)cc1)C(=O)O; d3Pal = N[C@H](Cc1cccnc1)C(=O)O; Salicyloyl = O=C(c1ccccc1O)*; Nicotinoyl = O=C(c1cccnc1)*; βAla = NCCC(=O)O

This assay has as its target T1, LHRH (Rattus norvegicus, UniProt P30969).
T1 construct: endogenous in cells; host or cells: rat pituitary cells (own knowledge of the cited Haviv 1989 method)
T1 sequence (P30969 1-327): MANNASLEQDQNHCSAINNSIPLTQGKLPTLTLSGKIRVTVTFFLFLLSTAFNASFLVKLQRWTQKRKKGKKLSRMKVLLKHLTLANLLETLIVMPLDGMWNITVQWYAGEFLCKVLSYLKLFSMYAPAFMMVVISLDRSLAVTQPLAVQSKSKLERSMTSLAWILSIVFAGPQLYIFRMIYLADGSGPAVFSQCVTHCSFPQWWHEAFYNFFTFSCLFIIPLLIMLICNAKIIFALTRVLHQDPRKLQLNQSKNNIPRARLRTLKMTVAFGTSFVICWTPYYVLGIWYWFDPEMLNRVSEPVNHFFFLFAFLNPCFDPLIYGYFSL
Put plainly: in vitro test for LHRH antagonist potency (pA2). Conditions: negative logarithm of the antagonist concentration required to shift the response curve produced by the agonist leuprolide to two-fold higher concentration. In kind it is cell-based. As for the experimental part: Representative compounds of the present invention were evaluated in an in vitro test for LHRH antagonist potency (pA2). The test employed the method detailed in F. Haviv, et al. J. Med. Chem., 32:2340-2344 (1989). The values of pA2 are the negative logarithms of the concentration of the particular antagonist test compound required to shift the response curve produced by the agonist leuprolide to two-fold higher concentration. (Leuprolide is the LHRH agonist having the structure 5-oxo-Pro^1 -His^2 -Trp^3 -Ser^4 -Tyr^5 -D-Leu^6 -Leu^7 -Arg^8 -Pro^9 -NHEt and is disclosed and claimed in U.S. Pat. No. 4,005,063.) Typically pA2 values of 9.5 or greater are indicative of good LHRH antagonist potency, with values of 10.0 or greater being preferred.

`CC(C)C[C@H](NC(=O)[C@@H](CCCCNC(=O)c1cccnc1)NC(=O)[C@H](Cc1ccc(O)cc1)N(C)C(=O)[C@H](CO)NC(=O)[C@@H](Cc1cccnc1)NC(=O)[C@@H](Cc1ccc(Cl)cc1)NC(=O)[C@@H](Cc1ccc2ccccc2c1)NC(=O)CNC(=O)c1ccccc1O)C(=O)N[C@@H](CCCCNC(C)C)C(=O)N1CCC[C@H]1C(=O)N[C@H](C)C(N)=O` [Example 2h, N-Salicyl-Gly-D2Nal-D4ClPhe-D3Pal-Ser-NMeTyr-DLys(N-epsilon-Nicotinyl) -Leu-Lys(N-epsilon-Isopropyl)-Pro-DAlaNH2] (Salicyloyl-G[d2Nal][dPhe(4-Cl)][d3Pal]S[NMeY][dK](Nicotinoyl)L[Lys(iPr)]P[dA]-NH2): the Kb (commonly the equilibrium dissociation constant of an antagonist, usually derived from a functional assay) was 0.01 nM. `CC(C)C[C@H](NC(=O)[C@@H](CCCCNC(=O)c1cccnc1)NC(=O)[C@H](Cc1ccc(O)cc1)N(C)C(=O)[C@H](CO)NC(=O)[C@@H](Cc1cccnc1)NC(=O)[C@@H](Cc1ccc(Cl)cc1)NC(=O)[C@@H](Cc1ccc2ccccc2c1)NC(=O)CNC(=O)[C@@H]1CCCO1)C(=O)N[C@@H](CCCCNC(C)C)C(=O)N1CCC[C@H]1C(=O)N[C@H](C)C(N)=O` [Example 4, N-(S)-Tetrahydrofur-2-oyl-Gly-D2Nal-D4ClPhe-D3Pal-Ser-NMeTyr-DLys(Nicotinyl) -Leu-Lys(N-epsilon-Isopropyl)-Pro-DAlaNH2]: the Kb is 0.00794 nM. With `CC(C)C[C@H](NC(=O)[C@@H](CCCCNC(=O)c1cccnc1)NC(=O)[C@H](Cc1ccc(O)cc1)N(C)C(=O)[C@H](CO)NC(=O)[C@@H](Cc1cccnc1)NC(=O)[C@@H](Cc1ccc(Cl)cc1)NC(=O)[C@@H](Cc1ccc2ccccc2c1)NC(=O)CNC(=O)[C@H]1CCCO1)C(=O)N[C@@H](CCCCNC(C)C)C(=O)N1CCC[C@H]1C(=O)N[C@H](C)C(N)=O` [Example 5, N-(R) Tetrahydrofur-2-oyl-Gly-D2Nal-D4ClPhe-D3Pal-Ser-NMeTyr-DLys(Nicotinyl) -Le u-Lys(N-epsilon-Isopropyl)-Pro-DAlaNH2], the Kb is 0.0214 nM. For the compound `CC(C)C[C@H](NC(=O)[C@@H](CCCCNC(=O)c1cccnc1)NC(=O)[C@H](Cc1ccc(O)cc1)N(C)C(=O)[C@H](CO)NC(=O)[C@@H](Cc1cccnc1)NC(=O)[C@@H](Cc1ccc(Cl)cc1)NC(=O)[C@@H](Cc1ccc2ccccc2c1)NC(=O)CCNC(=O)c1cccnc1)C(=O)N[C@@H](CCCCNC(C)C)C(=O)N1CCC[C@H]1C(=O)N[C@H](C)C(N)=O` [Example 6a, N-Nicotinyl-3Aminopropionyl-D2Nal-D4ClPhe-D3Pal-Ser-NMeTyr-DLys(N-epsilon- Nicotinyl) -Leu-Lys(N-epsilon-Isopropyl)-Pro-DAlaNH2] ({Nicotinoyl-βAla}-[d2Nal][dPhe(4-Cl)][d3Pal]S[NMeY][dK](Nicotinoyl)L[Lys(iPr)]P[dA]-NH2), the Kb is 0.00891 nM.

In the case of `CC(C)C[C@H](NC(=O)[C@@H](CCCCNC(=O)c1cccnc1)NC(=O)[C@H](Cc1ccc(O)cc1)N(C)C(=O)[C@H](CO)NC(=O)[C@@H](Cc1cccnc1)NC(=O)[C@@H](Cc1ccc(Cl)cc1)NC(=O)[C@@H](Cc1ccc2ccccc2c1)NC(=O)CCNC(=O)C1=C[C@@H](O)[C@@H](O)[C@H](O)C1)C(=O)N[C@@H](CCCCNC(C)C)C(=O)N1CCC[C@H]1C(=O)N[C@H](C)C(N)=O` [Example 6b, N-Shikimyl-3Aminopropionyl-D2Nal-D4ClPhe-D3Pal-Ser-NMeTyr-DLys(N-epsilon-Nicotinyl) -Leu-Lys(N-epsilon-Isopropyl)-Pro-DAlaNH2] ({Shikimoyl-βAla}-[d2Nal][dPhe(4-Cl)][d3Pal]S[NMeY][dK](Nicotinoyl)L[Lys(iPr)]P[dA]-NH2), the Kb is 0.0158 nM.
